In patent publication US7829589B2, “Sulfonamide compounds and uses thereof” (Elixir Pharmaceuticals, Inc., priority 2005, dated 2010):

Molecular target: GHS-R (Homo sapiens, UniProt Q92847)
Test: GHS-R antagonist activity (Ki) in a cell based assay
How it was run: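 Transfected COS-7 cells were labelled 24 h with [^3H]-myo-inositol and preincubated 30 min at 37 °C in HEPES buffer pH 7.4 with 10 mM LiCl, optionally with 1 U/ml adenosine deaminase. Compound was applied for 45 min at 37 °C. [^3H]-inositol phosphates were extracted with perchloric acid and isolated by anion-exchange resin.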

GHS-R, sequence (Q92847 whole entry, species assumed): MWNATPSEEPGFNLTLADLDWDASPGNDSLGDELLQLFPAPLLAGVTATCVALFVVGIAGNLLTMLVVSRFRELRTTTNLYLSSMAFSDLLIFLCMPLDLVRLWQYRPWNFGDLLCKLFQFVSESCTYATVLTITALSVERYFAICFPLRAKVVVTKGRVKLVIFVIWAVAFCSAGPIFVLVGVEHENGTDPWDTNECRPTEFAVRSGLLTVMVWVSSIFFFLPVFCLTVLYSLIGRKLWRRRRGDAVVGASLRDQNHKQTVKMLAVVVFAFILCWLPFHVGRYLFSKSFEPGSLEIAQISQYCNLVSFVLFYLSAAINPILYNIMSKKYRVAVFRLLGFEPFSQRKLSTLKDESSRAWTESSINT

SMILES | Ki
CCN(CC)CCCS(=O)(=O)N[C@H](CCc1ccccc1)c1nc(-c2ccc(Cl)cc2)n[nH]1 [Compound 22, 3-Diethylamino-propane-1-sulfonic acid {(R)-1-[5-(4-chloro-phenyl)-2H-[1,2,4]triazol-3-yl]-3-phenyl-propyl}-amide] | < 100 nM
CCN(CC)CCCS(=O)(=O)N[C@H](C)c1nc(Cc2ccc(Br)cc2)no1 [Compound 147, (R)-3-Diethylamino-propane-1-sulfonic acid {1-[3-(4-bromo-benzyl)-[1,2,4]oxadiazol-5-yl]-ethyl}-amide] | 100 to 500 nM
CCN(CC)CCCS(=O)(=O)N[C@H](CCc1ccccc1)c1nc(-c2ccccc2Cl)no1 [Compound 48, 3-Diethylamino-propane-1-sulfonic acid {(R)-1-[3-(2-chloro-phenyl)-[1,2,4]oxadiazol-5-yl]-3-phenyl-propyl}-amide] | 100 to 500 nM
CCN(CC)CCCS(=O)(=O)N[C@H](CCc1ccccc1)c1nc(-c2cccc(O)c2)n[nH]1 [Compound 121, 3-Diethylamino-propane-1-sulfonic acid {(R)-1-[5-(3-hydroxy-phenyl)-2H-[1,2,4]triazol-3-yl]-3-phenyl-propyl}-amide] | < 100 nM
CCN(CC)CCCS(=O)(=O)N[C@H](CCc1ccccc1)c1nc(-c2ccc(OC(F)(F)F)cc2)n[nH]1 [Compound 106, 3-Diethylamino-propane-1-sulfonic acid {(R)-3-phenyl-1-[5-(4-trifluoromethoxy-phenyl)-2H-[1,2,4]triazol-3-yl]-propyl}-amide] | < 100 nM
CCN(CC)CCCS(=O)(=O)N[C@H](CCc1ccccc1)c1nc(Cc2ccccc2Br)no1 [Compound 75, 3-Diethylamino-propane-1-sulfonic acid {(R)-1-[3-(2-bromo-benzyl)-[1,2,4]oxadiazol-5-yl]-3-phenyl-propyl}-amide] | < 100 nM
CCN(CC)CCS(=O)(=O)N[C@H](CCc1ccccc1)c1nc(-c2ccc(C)cc2)no1 [Compound 86, 2-Diethylamino-ethanesulfonic acid [(R)-3-phenyl-1-(3-p-tolyl-[1,2,4]oxadiazol-5-yl)-propyl]-amide] | 100 to 500 nM
CCN(CC)CCCS(=O)(=O)N[C@H](CCc1ccccc1)c1nc(Cc2cccc(Br)c2)no1 [Compound 74, 3-Diethylamino-propane-1-sulfonic acid {(R)-1-[3-(3-bromo-benzyl)-[1,2,4]oxadiazol-5-yl]-3-phenyl-propyl}-amide] | < 100 nM
CCN(CC)CCS(=O)(=O)N[C@H](CCc1ccccc1)c1nc(Cc2ccccc2C)no1 [Compound 87, 2-Diethylamino-ethanesulfonic acid {(R)-1-[3-(2-methyl-benzyl)-[1,2,4]oxadiazol-5-yl]-3-phenyl-propyl}-amide] | 100 to 500 nM
CCN(CC)CCCS(=O)(=O)NCc1nc(-c2ccc(OC)cc2)n[nH]1 [Compound 156, 3-Diethylamino-propane-1-sulfonic acid [5-(4-methoxy-phenyl)-2H-[1,2,4]triazol-3-ylmethyl]-amide] | 100 to 500 nM
CCN(CC)CCCS(=O)(=O)N[C@@H](C)c1nc(Cc2ccc(Br)cc2)no1 [Compound 146, (S)-3-Diethylamino-propane-1-sulfonic acid {1-[3-(4-bromo-benzyl)-[1,2,4]oxadiazol-5-yl]-ethyl}-amide] | 100 to 500 nM
CCN(CC)CCS(=O)(=O)N[C@H](CCc1ccccc1)c1nc(-c2ccccc2)no1 [Compound 17, 2-Diethylamino-ethanesulfonic acid [(R)-3-phenyl-1-(3-phenyl-[1,2,4]oxadiazol-5-yl)-propyl]-amide] | 100 to 500 nM
CCN(CC)CCCS(=O)(=O)N[C@H](CCc1ccccc1)c1nc(C2CCCCC2)n[nH]1 [Compound 139, 3-Diethylamino-propane-1-sulfonic acid [(R)-1-(5-cyclohexyl-2H-[1,2,4]triazol-3-yl)-3-phenyl-propyl]-amide] | < 100 nM
CCN(CC)CCCS(=O)(=O)N[C@H](CCc1ccccc1)c1nc(Cc2ccccc2F)no1 [Compound 72, 3-Diethylamino-propane-1-sulfonic acid {(R)-1-[3-(2-fluoro-benzyl)-[1,2,4]oxadiazol-5-yl]-3-phenyl-propyl}-amide] | < 100 nM
CCN(CC)CCCS(=O)(=O)N[C@H](CCc1ccccc1)c1nc(-c2cccc(Br)c2)no1 [Compound 64, 3-Diethylamino-propane-1-sulfonic acid {(R)-1-[3-(3-bromo-phenyl)-[1,2,4]oxadiazol-5-yl]-3-phenyl-propyl}-amide] | < 100 nM
CCN(CC)CCCS(=O)(=O)N[C@H](COCc1ccccc1)c1nc(-c2ccccc2C)no1 [Compound 33, 3-Diethylamino-propane-1-sulfonic acid [(R)-2-benzyloxy-1-(3-o-tolyl-[1,2,4]oxadiazol-5-yl)-ethyl]-amide] | ≥ 1000 nM
CCN(CC)CCCS(=O)(=O)N[C@H](CCc1ccccc1)c1nc(Cc2c(Cl)cccc2Cl)no1 [Compound 73, 3-Diethylamino-propane-1-sulfonic acid {(R)-1-[3-(2,6-dichloro-benzyl)-[1,2,4]oxadiazol-5-yl]-3-phenyl-propyl}-amide] | < 100 nM
CCN(CC)CCCS(=O)(=O)N[C@H](CCc1ccccc1)c1nc(-c2ccc(Cl)cc2Cl)n[nH]1 [Compound 58, 3-Diethylamino-propane-1-sulfonic acid {(R)-1-[5-(2,4-dichloro-phenyl)-2H-[1,2,4]triazol-3-yl]-3-phenyl-propyl}-amide] | < 100 nM
CCN(CC)CCS(=O)(=O)N[C@H](CCc1ccccc1)c1nc(-c2cnccc2C)no1 [Compound 77, 2-Diethylamino-ethanesulfonic acid {(R)-1-[3-(4-methyl-pyridin-3-yl)-[1,2,4]oxadiazol-5-yl]-3-phenyl-propyl}-amide] | ≥ 1000 nM
CCN(CC)CCCS(=O)(=O)N[C@H](CCc1ccccc1)c1nc(Cc2ccccc2C)no1 [Compound 68, 3-Diethylamino-propane-1-sulfonic acid {(R)-1-[3-(2-methyl-benzyl)-[1,2,4]oxadiazol-5-yl]-3-phenyl-propyl}-amide] | < 100 nM
CCN(CC)CCCS(=O)(=O)N[C@H](CCc1ccccc1)c1nc(-c2ccc(C#N)cc2)n[nH]1 [Compound 40, 3-Diethylamino-propane-1-sulfonic acid {(R)-1-[5-(4-cyano-phenyl)-2H-[1,2,4]triazol-3-yl]-3-phenyl-propyl}-amide] | < 100 nM
CCN(CC)CCCS(=O)(=O)N[C@H](CCc1ccccc1)c1nc(CCOC)no1 [Compound 60, 3-Diethylamino-propane-1-sulfonic acid {(R)-1-[3-(2-methoxy-ethyl)-[1,2,4]oxadiazol-5-yl]-3-phenyl-propyl}-amide] | 500 to 1000 nM
CCN(CC)CCCS(=O)(=O)N[C@H](CCc1ccccc1)c1nc(-c2ccc(N(C)C)cc2)n[nH]1 [Compound 110, 3-Diethylamino-propane-1-sulfonic acid {(R)-1-[5-(4-dimethylamino-phenyl)-2H-[1,2,4]triazol-3-yl]-3-phenyl-propyl}-amide] | ≥ 1000 nM
CCN(CC)CCCS(=O)(=O)N[C@H](CCc1ccccc1)c1nc(CCc2ccccc2Cl)no1 [Compound 101, 3-Diethylamino-propane-1-sulfonic acid ((R)-1-{3-[2-(2-chloro-phenyl)-ethyl]-[1,2,4]oxadiazol-5-yl}-3-phenyl-propyl)-amide] | 100 to 500 nM
